Results published in patent US10849907B2, “Imidazopyridine derivatives and the use thereof as medicament” (Boehringer Ingelheim International GmbH, priority 2017, dated 2020).

Target: T1, human BCRP (Homo sapiens, UniProt Q9UNQ0)
T1 construct: expressed in transfected cells; host or cells: MDCKII (Madin-Darby canine kidney) cells
T1 sequence (Q9UNQ0 1-655): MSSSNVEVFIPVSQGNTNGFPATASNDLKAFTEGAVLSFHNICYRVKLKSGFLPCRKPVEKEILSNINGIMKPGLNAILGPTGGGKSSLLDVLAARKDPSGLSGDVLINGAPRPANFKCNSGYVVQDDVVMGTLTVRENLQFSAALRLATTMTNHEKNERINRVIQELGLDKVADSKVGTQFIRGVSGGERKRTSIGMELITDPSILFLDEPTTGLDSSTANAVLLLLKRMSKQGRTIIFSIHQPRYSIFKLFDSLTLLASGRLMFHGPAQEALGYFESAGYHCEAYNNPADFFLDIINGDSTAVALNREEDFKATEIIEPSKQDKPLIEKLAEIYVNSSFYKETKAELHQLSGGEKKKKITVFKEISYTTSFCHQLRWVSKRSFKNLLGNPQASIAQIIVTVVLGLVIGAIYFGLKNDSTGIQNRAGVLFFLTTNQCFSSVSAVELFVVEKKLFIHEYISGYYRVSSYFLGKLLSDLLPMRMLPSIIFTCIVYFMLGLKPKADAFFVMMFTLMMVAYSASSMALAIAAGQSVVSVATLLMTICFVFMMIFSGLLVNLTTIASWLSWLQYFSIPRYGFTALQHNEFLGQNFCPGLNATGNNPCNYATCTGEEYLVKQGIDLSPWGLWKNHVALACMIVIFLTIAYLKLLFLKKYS
Experiment: MDCK assay BCRP: permeability across MDCK-BCRP monolayers
Assay type: in vitro ADME
Settings: for Papp A→B: MDCK-BCRP monolayers, apical-to-basal, pH 7.4, 1 or 10 μM; for efflux ratio: pH 7.4, MDCK-BCRP, Papp (b-a) divided by Papp (a-b)
Description: The MDCK assays provide information on the potential of a compound to pass the blood brain barrier. Permeability measurements across polarized, confluent MDCK-MDR1 cell monolayers grown on permeable filter supports are used as an in vitro absorption model: apparent permeability coefficients (PE) of the compounds across the MDCK-MDR1 cell monolayers are measured (pH 7.4, 37° C.) in apical-to-basal (AB) and basal-to-apical (BA) transport direction. The AB permeability (PEAB) represents drug absorption from the blood into the brain and the BA permeability (PEBA) drug efflux from the brain back into the blood via both, passive permeability as well as active transport mechanisms mediated by efflux and uptake transporters that are expressed on the MDCK-MDR1 cells, predominantly by the overexpressed human MDR1. Identical or similar permeabilities in both transport directions indicate passive permeation, vectorial permeability points to additional active transport mechanisms. Higher PEBA than PEAB (PEBA/PEAB >5) indicates the involvement of active efflux mediated by MDR1, which might compromise the goal to achieve sufficient brain exposure. Therefore, this assay provides valuable support for selection of compounds applicable for further in vivo testing. High permeability not limited by efflux at the blood brain barrier is a favourable characteristic for compounds that are to be used for drugs acting primarily in the CNS. Similar concepts are applicable to the MDCK BCRP assay and its interpretation; consequently, to ensure high permeability at the blood brain barrier, it is highly preferred to minimize the efflux (efflux <5) at both MDR1 and BCRP transporters.
Apparent permeability coefficients (Papp) of the compounds across the MDCK-BCRP monolayers (MDCKII cells transfected with human BCRP cDNA expression plasmid) are measured in apical-to-basal (AB) and basal-to-apical (BA) direction. MDCK-BCRP cells (6×10^5 cells/cm^2) are seeded on filter inserts (Corning, Transwell, polycarbonate, 0.4 μm pore size) and cultured for 9 to 10 days. Compounds dissolved in DMSO stock solution (1-20 mM) are diluted with HTP-4 aqueous buffer (128.13 mM NaCl, 5.36 mM KCl, 1 mM MgSO4, 1.8 mM CaCl2, 4.17 mM NaHCO3, 1.19 mM Na2HPO4, 0.41 mM NaH2PO4, 15 mM HEPES, 20 mM glucose, pH 7.4) supplemented with 0.25% BSA to prepare the transport solutions (final concentration: 1 or 10 μM, final DMSO <=0.5%). The transport solution is applied to the apical or basolateral donor side for measuring A-B or B-A permeability, respectively. The receiver side contains HTP-4 buffer supplemented with 0.25% BSA. Samples are collected at the start and end of experiment from the donor and at various time intervals for up to 2 hours also from the receiver side for concentration measurement by HPLC-MS/MS. Sampled receiver volumes are replaced with fresh receiver solution. Efflux ratio is calculated dividing the Papp (b-a) values by the Papp (a-b) values.

Row | Papp A→B | efflux ratio | Structure (SMILES)
1 | 40 ×10⁻⁶ cm/s | 2.2 | Cc1cccc(F)c1COC(=O)N1CCO[C@H](c2nc3cccnc3[nH]2)C1 [Example 10]
2 | 61 ×10⁻⁶ cm/s | 1.6 | O=C(OCc1ccc(F)cc1F)N1CCO[C@H](c2nc3cccnc3[nH]2)C1 [Example 19]
3 | 37 ×10⁻⁶ cm/s | 2.5 | O=C(OCc1ccccc1)N1CCO[C@H](c2nc3cccnc3[nH]2)C1 [Example 17]
4 | 56 ×10⁻⁶ cm/s | 1.2 | O=C(OCc1ccc(Cl)cc1)N1CCO[C@H](c2nc3cccnc3[nH]2)C1 [Example 28]
5 | 85 ×10⁻⁶ cm/s | 0.7 | Cc1ccc(COC(=O)N2CCO[C@H](c3nc4cc(F)cnc4[nH]3)C2)cc1 [Example 31]
6 | 49 ×10⁻⁶ cm/s | 2.1 | O=C(OCc1c(F)cccc1F)N1CCO[C@H](c2nc3cccnc3[nH]2)C1 [Example 16]
7 | 53 ×10⁻⁶ cm/s | 1.2 | Cc1ccc(COC(=O)N2CCO[C@H](c3nc4cccnc4[nH]3)C2)cc1 [Example 18]
8 | 24 ×10⁻⁶ cm/s | 5.2 | O=C(OCc1ccccc1F)N1CCO[C@H](c2nc3cccnc3[nH]2)C1 [Example 27]
9 | 72 ×10⁻⁶ cm/s | 0.9 | O=C(OCc1ccc(F)cc1Cl)N1CCO[C@H](c2nc3cccnc3[nH]2)C1 [Example 13]
10 | 38 ×10⁻⁶ cm/s | 2.4 | O=C(OCc1cccc(F)c1)N1CCO[C@H](c2nc3cccnc3[nH]2)C1 [Example 1]
11 | 63 ×10⁻⁶ cm/s | 1 | Cc1ccc(COC(=O)N2CCO[C@H](c3nc4cccnc4[nH]3)C2)c(F)c1 [Example 11]
12 | 46 ×10⁻⁶ cm/s | 1.8 | Cc1ccccc1COC(=O)N1CCO[C@H](c2nc3cccnc3[nH]2)C1 [Example 8]
13 | 24 ×10⁻⁶ cm/s | 2.7 | O=C(OCc1ccc(C(F)F)cc1)N1CCO[C@H](c2nc3cccnc3[nH]2)C1 [Example 26]
14 | 69 ×10⁻⁶ cm/s | 1 | Cc1ccc(COC(=O)N2CCO[C@H](c3nc4cccnc4[nH]3)C2)cc1F [Example 12]
15 | 68 ×10⁻⁶ cm/s | 1.2 | O=C(OCc1ccccc1Cl)N1CCO[C@H](c2nc3cccnc3[nH]2)C1 [Example 14]
16 | 34 ×10⁻⁶ cm/s | 2.9 | O=C(OCc1ccc(F)cc1)N1CCO[C@H](c2nc3cccnc3[nH]2)C1 [Example 2]
17 | 33 ×10⁻⁶ cm/s | 2.8 | O=C(OCc1cccc(F)c1F)N1CCO[C@H](c2nc3cccnc3[nH]2)C1 [Example 15]
